Test results reported in patent US20240335394A1 (Ludwig Institute for Cancer Research Ltd, priority 2021, published 2024).

Experiments:
[1] = tested on: syngeneic MC38 tumors; assay: MC38 study: anti-PD1 antibody alone or with methanol or sodium formate, tumor volume and survival; format: in vivo, C57BL/6 mice
Protocol: Tumor volumes were measured by caliper twice weekly.

[2] = tested on: MC38 cells; assay: MC38 rechallenge of mice that cleared tumors; format: in vivo; settings: 6 mice cleared by methanol plus anti-PD1, reinoculated with 5×10^5 MC38 cells on opposite flank, untreated, observed three weeks
Excerpt: The rechallenged mice were monitored twice weekly for tumor growth for three weeks. Fifteen age-matched, tumor-naïve control mice were simultaneously inoculated as a control. The mice were not treated during the observation interval.

[3] = humans; cited from earlier work
[4] = primates; cited from earlier work
[5] = in vivo; cited from earlier work
[6] = tested on: 1C-starved T-cells; settings: formate supplementation; cited from earlier work
[7] = Body weight in the MC38 study; settings: methanol 2 g/kg daily oral gavage or sodium formate 0.5% w/v in drinking water, with anti-PD1
Protocol: Female C57BL/6 mice (10 per group) were inoculated subcutaneously with 5×10^5 MC38 syngeneic mouse tumor cells. […] Tumor volumes were measured by caliper twice weekly.

Structure (SMILES)	response to anti-PD1 therapy ([1]; methanol 2 g/kg daily oral gavage plus anti-PD1 antibody 5 mg/kg ip twice weekly, compared to vehicle or sodium formate)	synergy with immunotherapy in a mouse model of cancer ([1]; mouse model of cancer)	tumor development after rechallenge [2]	lethal dose [3]	formate levels at which symptomatic toxicity is observed [4]	elimination [5]	T-cell activity [6]	effects on body weight [7]
CO [methanol]	improved response to anti-PD1 therapy	synergize with immunotherapy	did not develop tumors	0.3 to 1.0 g/kg	–	–	–	–
O=C[O-].[Na+] [sodium formate]	–	–	–	–	greater than 8 mM	too rapidly eliminated to dose directly	rescues T-cell activity	No effects on body weight
